One compound from paper PMC10898118, “Biocatalytic cascade to polysaccharide amination” (Biotechnology for Biofuels and Bioproducts, 2024) can be followed below.

Structures are written as SMILES.

For the test, the target named is T1, CvATA (Chromobacterium violaceum, UniProt Q7NWG4).
T1 construct: gene CV_2025; dimer
T1 sequence (Q7NWG4 1-459): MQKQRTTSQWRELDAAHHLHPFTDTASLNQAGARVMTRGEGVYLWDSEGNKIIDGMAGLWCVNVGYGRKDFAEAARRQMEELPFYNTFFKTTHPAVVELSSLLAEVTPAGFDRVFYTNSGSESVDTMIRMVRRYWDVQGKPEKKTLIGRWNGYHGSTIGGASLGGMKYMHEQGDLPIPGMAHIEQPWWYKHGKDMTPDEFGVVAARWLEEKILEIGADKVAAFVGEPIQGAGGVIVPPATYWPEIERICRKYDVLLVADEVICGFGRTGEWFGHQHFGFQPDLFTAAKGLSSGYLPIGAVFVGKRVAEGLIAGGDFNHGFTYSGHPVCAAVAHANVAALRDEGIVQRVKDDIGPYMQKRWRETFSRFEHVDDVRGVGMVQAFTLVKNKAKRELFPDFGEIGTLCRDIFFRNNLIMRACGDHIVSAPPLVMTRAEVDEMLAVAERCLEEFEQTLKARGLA
The test is described as follows: acetophenone assay, UV […] nm. In kind it is biochemical. The following applies: 5 mM galactose pre-oxidized in situ by FgrGaOx (catalase, HRP), 5 mM (S)-1-phenylethylamine, 20 µM PLP, 50 mM HEPES pH 7.5, 37 °C.

Regarding `O=C[C@@H](O)[C@H](O)[C@H](O)[C@@H](O)C=O` [oxidized galactose], the “acetophenone assay, UV 245 nm” value was “initial activity of CvATA on pyruvate and oxidized galactose”.
